# Columns and labels:
# [1] = system: Plasmodium falciparum, Strain D6; assay: In vitro antiplasmodial activity, fluorescence-based SYBR Green assay, strain D6; type: cell-based; conditions: D6, 72 h, read-out: IC50 v D6 ± SD
# HepG2 cytotoxicity assay = type: cell-based; conditions: human
# [2] = Murine microsomal stability; type: in vitro ADME
# Plasmodium yoelii [3] = assay: In vivo parasite suppression at fixed dose, modified 4-day Peters test; set-up: species or system Plasmodium yoelii (female CF1 mice); conditions: for inhibition in vivo at 2.5 mg/kg: Plasmodium yoelii, in Mus musculus, po, 120 h, read-out: % Py Suppression; for % Py Suppression: 2.5 mg/kg/d oral, Days 1-4, parasitemia Day 5 vs vehicle control, n = 4
# Plasmodium yoelii [4] = assay: In vivo efficacy; set-up: species or system Plasmodium yoelii (female CF1 mice); conditions: oral once daily for 4 days, parasitemia Day 5
# Plasmodium yoelii [5] = assay: Single dose cure; type: in vivo, Plasmodium yoelii (female CF1 mice); conditions: single oral dose Day 1, 0% parasitemia until Day 30
# [6] = mouse, pooled liver microsomes, pH 7.4
"CLint scaled at 1 μM [2, 6] [mL/min/kg]",Structure (SMILES),CC50 at 24 h (HepG2 cytotoxicity assay; HepG2 cells) [µM],inhibition in vivo at 2.5 mg/kg (Plasmodium yoelii [3]) [%],further results
–,"CCN(CC)CCCC(C)Nc1ccnc2cc(Cl)ccc12 (centres unmarked) [Compound 1, chloroquine]",–,–,IC50 [1]: 0.0096 ± 0.002 µM
–,"Clc1ccc2c(Nc3ccc(N4CCOCC4)cc3)ccnc2c1 [Compound 7, 7-chloro-N-(4-morpholinophenyl)quinolin-4-amine]",> 200,–,–
–,"FC(F)(F)Oc1ccc(-c2cnc3cc(Cl)ccc3c2Nc2ccc(N3CCOCC3)cc2)cc1 [Compound 8, 7-chloro-N-(4-morpholinophenyl)-3-(4-(trifluoromethoxy)phenyl)quinolin-4-amine]",> 200,–,–
–,"Clc1ccc2c(Nc3ccc(C4COCCN4Cc4ccccc4)cc3)ccnc2c1 (centres unmarked) [Compound 12, N-(4-(4-benzylmorpholin-3-yl)phenyl)-7-chloroquinolin-4-amine]",> 200,–,–
–,"CCN1CCOCC1c1ccc(Nc2ccnc3cc(Cl)ccc23)cc1 (centres unmarked) [Compound 13, 7-chloro-N-(4-(4-ethylmorpholin-3-yl)phenyl)quinolin-4-amine]",> 200,–,–
–,"CCN1CCOCC1c1ccc(Nc2c(-c3ccc(OC(F)(F)F)cc3)cnc3cc(Cl)ccc23)cc1 (centres unmarked) [Compound 14, 7-chloro-N-(4-(4-ethylmorpholin-3-yl)phenyl)-3-(4-(trifluoromethoxy)phenyl)quinolin-4-amine]",> 200,–,–
–,"Clc1ccc2c(Nc3ccc(C4CN(Cc5ccccc5)CCO4)cc3)ccnc2c1 (centres unmarked) [Compound 15, N-(4-(4-benzylmorpholin-2-yl)phenyl)-7-chloroquinolin-4-amine]",38,–,–
–,"FC(F)(F)Oc1ccc(-c2cnc3cc(Cl)ccc3c2Nc2ccc(C3CN(Cc4ccccc4)CCO3)cc2)cc1 (centres unmarked) [Compound 16, N-(4-(4-benzylmorpholin-2-yl)phenyl)-7-chloro-3-(4-(trifluoromethoxy)phenyl)quinolin-4-amine]",> 200,–,–
392,"Clc1ccc2c(Nc3ccc(N4CCN(Cc5ccccc5)CC4)cc3)ccnc2c1 [Compound 17, N-(4-(4-benzylpiperazin-1-yl)phenyl)-7-chloroquinolin-4-amine]",> 200,0,–
2930,"CCN1CCN(c2ccc(Nc3ccnc4cc(Cl)ccc34)cc2)CC1 [Compound 20, 7-chloro-N-(4-(4-ethylpiperazin-1-yl)phenyl)quinolin-4-amine]",> 200,60,ED50 v Py (Plasmodium yoelii [4]): 1.5 mg/kg/day; ED90 v Py (Plasmodium yoelii [4]): 8.4 mg/kg/day
3780,"CN1CCN(c2ccc(Nc3ccnc4cc(Cl)ccc34)cc2)CC1 [Compound 21, 7-chloro-N-(4-(4-methylpiperazin-1-yl)phenyl)quinolin-4-amine]",–,–,–
–,"CCN1CCN(c2ccc(Nc3ccnc4cc(Cl)c(Cl)cc34)cc2)CC1 [Compound 24, 6,7-dichloro-N-(4-(4-ethylpiperazin-1-yl)phenyl)quinolin-4-amine]",> 200,–,–
–,"CCN1CCN(c2ccc(Nc3ccnc4cc(Br)ccc34)cc2)CC1 [Compound 25, 7-bromo-N-(4-(4-ethylpiperazin-1-yl)phenyl)quinolin-4-amine]",48,–,–
–,"CCN1CCN(c2ccc(Nc3ccnc4cc(C(F)(F)F)ccc34)cc2)CC1 [Compound 26, N-(4-(4-ethylpiperazin-1-yl)phenyl)-7-(trifluoromethyl)quinolin-4-amine]",> 200,–,–
–,"CC(C)(C)N1CCN(c2ccc(Nc3ccnc4cc(Cl)ccc34)cc2)CC1 [Compound 31, N-(4-(4-(tert-butyl)piperazin-1-yl)phenyl)-7-chloroquinolin-4-amine]",> 200,30,"t1/2 (microsomal stability) ([2]; pooled murine liver microsomes, 1 μM, 0.5 mg/mL protein, 37 °C, 1 h): ∞; compound metabolized over the course of the microsomal experiment ([2]; pooled murine liver microsomes, 1 h): no detectable amount of compound was metabolized; ED50 v Py (Plasmodium yoelii [4]): 4.0 mg/kg/day; ED90 v Py (Plasmodium yoelii [4]): 7.6 mg/kg/day"
–,"FC(F)(F)c1ccc(N2CCN(c3ccc(Nc4ccnc5cc(Cl)ccc45)cc3)CC2)cc1 [Compound 32, 7-chloro-N-(4-(4-(4-(trifluoromethyl)phenyl)piperazin-1-yl)phenyl)quinolin-4-amine]",> 200,–,–
–,"Clc1ccc2c(Nc3ccc(N4CCN(C5CC5)CC4)cc3)ccnc2c1 [Compound 33, 7-chloro-N-(4-(4-cyclopropylpiperazin-1-yl)phenyl)quinolin-4-amine]",> 200,–,–
–,"Clc1ccc2c(Nc3ccc(N4CCCCC4)cc3)ccnc2c1 [Compound 34, 7-chloro-N-(4-(piperidin-1-yl)phenyl)quinolin-4-amine]",> 200,–,–
124,"CC(C)N1CCC(c2ccc(Nc3ccnc4cc(Cl)ccc34)cc2)CC1 [Compound 35, 7-chloro-N-(4-(1-isopropylpiperidin-4-yl)phenyl)quinolin-4-amine]",> 200,48,ED50 v Py (Plasmodium yoelii [4]): 1.1 mg/kg/day; ED90 v Py (Plasmodium yoelii [4]): 4.1 mg/kg/day
–,"CC(C)(C)OC(=O)N1CCN(c2ccc(Nc3ccnc4cc(Cl)ccc34)cc2)CC1 [Compound 36, tert-butyl 4-(4-((7-chloroquinolin-4-yl)amino)phenyl)piperazine-1-carboxylate]",> 200,–,–
–,"Clc1ccc2c(Nc3ccc(N4CCNCC4)cc3)ccnc2c1 [Compound 38, 7-chloro-N-(4-(piperazin-1-yl)phenyl)quinolin-4-amine]",54,–,–
–,"Clc1ccc2c(Nc3ccc(C4CCNCC4)cc3)ccnc2c1 [Compound 39, 7-chloro-N-(4-(piperidin-4-yl)phenyl)quinolin-4-amine]",58,–,–
497,"CCN1CCC(c2ccc(Nc3ccnc4cc(Cl)ccc34)cc2)CC1 [Compound 40, 7-chloro-N-(4-(1-ethylpiperidin-4-yl)phenyl)quinolin-4-amine]",–,13,ED50 v Py (Plasmodium yoelii [4]): 1.8 mg/kg/day; ED90 v Py (Plasmodium yoelii [4]): 13 mg/kg/day
78,"CCCN1CCC(c2ccc(Nc3ccnc4cc(Cl)ccc34)cc2)CC1 [Compound 41, 7-chloro-N-(4-(1-propylpiperidin-4-yl)phenyl)quinolin-4-amine]",> 200,39,% Py Suppression (Plasmodium yoelii [3]): 39%
130,"CCCCN1CCC(c2ccc(Nc3ccnc4cc(Cl)ccc34)cc2)CC1 [Compound 42, N-(4-(1-butylpiperidin-4-yl)phenyl)-7-chloroquinolin-4-amine]",> 200,53,–
–,"CC(C)CN1CCC(c2ccc(Nc3ccnc4cc(Cl)ccc34)cc2)CC1 [Compound 43, 7-chloro-N-(4-(1-isobutylpiperidin-4-yl)phenyl)quinolin-4-amine]",–,91,SDC (single dose cure) (Plasmodium yoelii [5]): 50 mg/kg; CC50 at 24 h (HepG2 cytotoxicity assay): > 200 µM; % Py Suppression (Plasmodium yoelii [3]): 91%
98.3,"CCC(C)N1CCC(c2ccc(Nc3ccnc4cc(Cl)ccc34)cc2)CC1 (centres unmarked) [Compound 44, N-(4-(1-(sec-butyl)piperidin-4-yl)phenyl)-7-chloroquinolin-4-amine]",> 200,71,–
843,"CC(C)CN1CCN(c2ccc(Nc3ccnc4cc(Cl)ccc34)cc2)CC1 [Compound 45, 7-chloro-N-(4-(4-isobutylpiperazin-1-yl)phenyl)quinolin-4-amine]",> 200,–,"half-life at 1 μM [2, 6]: 6.47 min; % Py Suppression (Plasmodium yoelii [3]): 30%"
